Measured values published in patent US8952024B2, “Herbicidal pyrimidone derivatives” (E I du Pont de Nemours and Company, priority 2009, dated 2015).

How the values were obtained:
Assay type in all cases: in vivo
corn (Zea mays) = assay: Test B pre-/postemergence plant response
Source text: (§1) Seeds of plant species selected from blackgrass (Alopecurus myosuroides), downy bromegrass (Bromus tectorum), green foxtail (Setaria viridis), Italian ryegrass (Lolium multiflorum), wheat (Triticum aestivum), wild oat (Avena fatua), deadnettle (henbit deadnettle, Lamium amplexicaule), galium (catchweed bedstraw, Galium aparine), bermudagrass (Cynodon dactylon), Surinam grass (Brachiaria decumbens), cocklebur (Xanthium strumarium), corn (Zea mays), large crabgrass (Digitaria sanguinalis), woolly cupgrass (Eriochloa villosa), giant foxtail (Setaria faberii), goosegrass (Eleusine indica), johnsongrass (Sorghum halepense), kochia (Kochia scoparia), lambsquarters (Chenopodium album), morningglory (Ipomoea coccinea), nightshade (eastern black nightshade, Solanum ptycanthum), yellow nutsedge (Cyperus esculentus), pigweed (Amaranthus retroflexus), ragweed (common ragweed, Ambrosia elatior), Russian thistle (Salsola kali), soybean (Glycine max), sunflower (common oilseed sunflower, Helianthus annuus) and velvetleaf (Abutilon theophrasti) were planted into a blend of loam soil and sand and treated preemergence with test compounds formulated in a non-phytotoxic solvent mixture which included a surfactant.
(§2) At the same time, plants selected from these crop and weed species and also winter barley (Hordeum vulgare), canarygrass (Phalaris minor), chickweed (Stellaria media) and windgrass (Apera spica-venti) were planted in pots containing Redi-Earth® planting medium (Scotts Company, 14111 Scottslawn Road, Marysville, Ohio 43041) comprising spaghnum peat moss, vermiculite, wetting agent and starter nutrients and treated with postemergence applications of some of the test chemicals formulated in the same manner. Plants ranged in height from 2 to 18 cm (1- to 4-leaf stage) for postemergence treatments.
(§3) Treated plants and controls were maintained in a greenhouse for 13 to 15 days, after which time all treated plants were visually evaluated and compared to controls. Plant response ratings, summarized in Table B, are based on a scale of 0 to 100 where 0 is no effect and 100 is complete control. A dash (-) response means no test result.

[1] = test system: morningglory (Ipomoea coccinea); assay: Test B pre-/postemergence plant response
Source text: as §1, §2, §3

[2] = test system: velvetleaf (Abutilon theophrasti); assay: Test B pre-/postemergence plant response
Source text: as §1, §2, §3

[3] = test system: bermudagrass (Cynodon dactylon); assay: Test B pre-/postemergence plant response
Source text: as §1, §2, §3

[4] = test system: wheat (Triticum aestivum); assay: Test B pre-/postemergence plant response
Source text: as §1, §2, §3

[5] = test system: Italian ryegrass (Lolium multiflorum); assay: Test B pre-/postemergence plant response
Source text: as §1, §2, §3

[6] = test system: goosegrass (Eleusine indica); assay: Test B pre-/postemergence plant response
Source text: as §1, §2, §3

[7] = test system: giant foxtail (Setaria faberii); assay: Test B pre-/postemergence plant response
Source text: as §1, §2, §3

[8] = test system: ragweed (common ragweed, Ambrosia elatior); assay: Test B pre-/postemergence plant response
Source text: as §1, §2, §3

[9] = test system: blackgrass (Alopecurus myosuroides); assay: Test B pre-/postemergence plant response
Source text: as §1, §2, §3

[10] = test system: green foxtail (Setaria viridis); assay: Test B pre-/postemergence plant response
Source text: as §1, §2, §3

[11] = test system: johnsongrass (Sorghum halepense); assay: Test B pre-/postemergence plant response
Source text: as §1, §2, §3

[12] = test system: downy bromegrass (Bromus tectorum); assay: Test B pre-/postemergence plant response
Source text: as §1, §2, §3

[13] = test system: pigweed (Amaranthus retroflexus); assay: Test B pre-/postemergence plant response
Source text: as §1, §2, §3

soybean (Glycine max) = assay: Test B pre-/postemergence plant response
Source text: as §1, §2, §3

[14] = test system: canarygrass (Phalaris minor); assay: Test B postemergence plant response; conditions: Postemergence
Method in brief: (§4)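 Plants at the 1- to 4-leaf stage (2 to 18 cm tall), grown in pots of peat moss/vermiculite medium with wetting agent and starter nutrients, received postemergence applications of test chemicals. After 13 to 15 days in a greenhouse, injury was rated visually against untreated controls on a 0 (no effect) to 100 (complete control) scale.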

[15] = test system: winter barley (Hordeum vulgare); assay: Test B postemergence plant response; conditions: Postemergence
Method in brief: as §4

[16] = test system: chickweed (Stellaria media); assay: Test B postemergence plant response; conditions: Postemergence
Method in brief: as §4

[17] = 250 g ai/ha, Preemergence, 0 to 100 scale
[18] = Postemergence, 31 g ai/ha, scale 0 to 100 (0 no effect, 100 complete control)
[19] = Postemergence, 62 g ai/ha, scale 0 (no effect) to 100 (complete control), 13 to 15 days
[20] = Postemergence, 125 g ai/ha, visual rating after 13 to 15 days, scale 0 (no effect) to 100 (complete control)
[21] = Postemergence, 250 g ai/ha, scale 0 to 100
[22] = Preemergence, 31 g ai/ha, scale 0 to 100 (0 no effect, 100 complete control)
[23] = Preemergence, 62 g ai/ha, scale 0 to 100, 0 no effect, 100 complete control
[24] = Preemergence, 125 g ai/ha, 0 to 100 scale
[25] = 31 g ai/ha, scale 0 to 100 (0 no effect, 100 complete control)
[26] = 62 g ai/ha, scale 0 (no effect) to 100 (complete control), 13 to 15 days
[27] = 125 g ai/ha, visual rating after 13 to 15 days, scale 0 (no effect) to 100 (complete control)

O=C1CCCC([O-])=C1C(=O)c1cnc(-c2ccccc2)n(-c2ccccc2)c1=O.[K+] [Compound 14]
Plant response rating, Corn (corn (Zea mays); [17]): 10 | Plant response rating, Corn (corn (Zea mays); [18]): 10 | Plant response rating, Corn (corn (Zea mays); [19]): 40 | Plant response rating, Corn (corn (Zea mays); [20]): 45 | Corn plant response rating (corn (Zea mays); [21]): 70 | Plant response rating, Corn (corn (Zea mays); [22]): 0 | Plant response rating, Corn (corn (Zea mays); [23]): 0 | Corn plant response rating (corn (Zea mays); [24]): 0 | Plant response rating, Morningglory [1, 17]: 100 | Plant response rating, Morningglory [1, 18]: 70 | Plant response rating, Morningglory [1, 19]: 70 | Plant response rating, Morningglory [1, 20]: 80 | Morningglory plant response rating [1, 21]: 95 | Plant response rating, Morningglory [1, 22]: 100 | Plant response rating, Morningglory [1, 23]: 100 | Morningglory plant response rating [1, 24]: 100 | Plant response rating, Velvetleaf [2, 17]: 100 | Plant response rating, Velvetleaf [2, 18]: 85 | Plant response rating, Velvetleaf [2, 19]: 90 | Plant response rating, Velvetleaf [2, 20]: 90 | Velvetleaf plant response rating [2, 21]: 100 | Plant response rating, Velvetleaf [2, 22]: 70 | Plant response rating, Velvetleaf [2, 23]: 98 | Velvetleaf plant response rating [2, 24]: 100 | Plant response rating, Bermudagrass [3, 17]: 100 | Plant response rating, Bermudagrass [3, 18]: 70 | Plant response rating, Bermudagrass [3, 19]: 70 | Plant response rating, Bermudagrass ([3]; Postemergence, 125 g ai/ha, scale 0 to 100 (0 no effect, 100 complete control), 13 to 15 days): 80 | Bermudagrass plant response rating [3, 21]: 80 | Plant response rating, Bermudagrass [3, 22]: 70 | Plant response rating, Bermudagrass [3, 23]: 75 | Bermudagrass plant response rating [3, 24]: 100 | Plant response rating, Wheat [4, 17]: 0 | Plant response rating, Wheat [4, 18]: 0 | Plant response rating, Wheat [4, 19]: 0 | Plant response rating, Wheat [4, 20]: 0 | Wheat plant response rating [4, 21]: 20 | Plant response rating, Wheat [4, 22]: 0 | Plant response rating, Wheat [4, 23]: 0 | Wheat plant response rating [4, 24]: 0 | Plant response rating, Ryegrass, Italian [5, 17]: 0 | Plant response rating, Ryegrass, Italian [5, 18]: 0 | Plant response rating, Ryegrass, Italian [5, 19]: 5 | Plant response rating, Ryegrass, Italian [5, 20]: 5 | Ryegrass, Italian plant response rating [5, 21]: 50 | Plant response rating, Ryegrass, Italian [5, 22]: 0 | Plant response rating, Ryegrass, Italian [5, 23]: 0 | Ryegrass, Italian plant response rating [5, 24]: 0 | Plant response rating, Goosegrass [6, 17]: 100 | Plant response rating, Goosegrass [6, 18]: 80 | Plant response rating, Goosegrass [6, 19]: 80 | Plant response rating, Goosegrass [6, 20]: 80 | Goosegrass plant response rating [6, 21]: 85 | Plant response rating, Goosegrass [6, 22]: 70 | Goosegrass plant response rating [6, 24]: 98 | Plant response rating, Foxtail, Giant [7, 17]: 90 | Plant response rating, Foxtail, Giant [7, 18]: 50 | Plant response rating, Foxtail, Giant [7, 19]: 70 | Plant response rating, Foxtail, Giant [7, 20]: 80 | Foxtail, Giant plant response rating [7, 21]: 95 | Plant response rating, Foxtail, Giant [7, 22]: 0 | Plant response rating, Foxtail, Giant [7, 23]: 10 | Foxtail, Giant plant response rating [7, 24]: 75 | Plant response rating, Ragweed [8, 17]: 90 | Plant response rating, Ragweed [8, 18]: 80 | Plant response rating, Ragweed [8, 19]: 80 | Plant response rating, Ragweed [8, 20]: 85 | Ragweed plant response rating [8, 21]: 98 | Plant response rating, Ragweed [8, 22]: 70 | Plant response rating, Ragweed [8, 23]: 90 | Ragweed plant response rating [8, 24]: 90 | Plant response rating, Blackgrass [9, 17]: 0 | Plant response rating, Blackgrass [9, 18]: 0 | Plant response rating, Blackgrass [9, 19]: 0 | Plant response rating, Blackgrass [9, 20]: 5 | Blackgrass plant response rating [9, 21]: 5 | Plant response rating, Blackgrass [9, 22]: 0 | Plant response rating, Blackgrass [9, 23]: 0 | Blackgrass plant response rating [9, 24]: 0 | Plant response rating, Foxtail, Green [10, 17]: 60 | Plant response rating, Foxtail, Green [10, 18]: 45 | Plant response rating, Foxtail, Green [10, 19]: 45 | Plant response rating, Foxtail, Green [10, 20]: 50 | Foxtail, Green plant response rating [10, 21]: 85 | Plant response rating, Foxtail, Green [10, 22]: 0 | Plant response rating, Foxtail, Green [10, 23]: 0 | Foxtail, Green plant response rating [10, 24]: 10 | Plant response rating, Johnsongrass [11, 17]: 95 | Plant response rating, Johnsongrass [11, 18]: 45 | Plant response rating, Johnsongrass [11, 19]: 80 | Plant response rating, Johnsongrass [11, 20]: 80 | Johnsongrass plant response rating [11, 21]: 80 | Plant response rating, Johnsongrass [11, 22]: 5 | Plant response rating, Johnsongrass [11, 23]: 30 | Johnsongrass plant response rating [11, 24]: 80 | Plant response rating, Bromegrass, Downy [12, 17]: 0 | Plant response rating, Bromegrass, Downy [12, 18]: 10 | Plant response rating, Bromegrass, Downy [12, 19]: 30 | Plant response rating, Bromegrass, Downy [12, 20]: 50 | Bromegrass, Downy plant response rating [12, 21]: 70 | Plant response rating, Bromegrass, Downy [12, 22]: 0 | Plant response rating, Bromegrass, Downy [12, 23]: 0 | Bromegrass, Downy plant response rating [12, 24]: 0 | Plant response rating, Pigweed [13, 17]: 100 | Plant response rating, Pigweed [13, 18]: 80 | Plant response rating, Pigweed [13, 19]: 80 | Plant response rating, Pigweed [13, 20]: 80 | Pigweed plant response rating [13, 21]: 98 | Plant response rating, Pigweed [13, 22]: 90 | Plant response rating, Pigweed [13, 23]: 98 | Pigweed plant response rating [13, 24]: 100 | Plant response rating, Soybean (soybean (Glycine max); [17]): 85 | Plant response rating, Soybean (soybean (Glycine max); [18]): 80 | Plant response rating, Soybean (soybean (Glycine max); [19]): 85 | Plant response rating, Soybean (soybean (Glycine max); [20]): 90 | Soybean plant response rating (soybean (Glycine max); [21]): 90 | Plant response rating, Soybean (soybean (Glycine max); [22]): 25 | Soybean plant response rating (soybean (Glycine max); [24]): 50 | Plant response rating, Canarygrass [14, 25]: 10 | Plant response rating, Canarygrass [14, 26]: 20 | Plant response rating, Canarygrass [14, 27]: 20 | Canarygrass plant response rating ([14]; 250 g ai/ha, scale 0 to 100): 50 | Plant response rating, Barley [15, 25]: 0 | Plant response rating, Barley [15, 26]: 0 | Plant response rating, Barley ([15]; 125 g ai/ha, scale 0 to 100 (0 no effect, 100 complete control), 13 to 15 days): 5 | Barley plant response rating ([15]; 250 g ai/ha, scale 0 to 100): 40 | Plant response rating, Chickweed [16, 27]: 80 | Chickweed plant response rating ([16]; 250 g ai/ha, scale 0 to 100): 80
